This is an account of results in publication PMC4109680, “Identification and Preclinical Pharmacology of the γ-Secretase Modulator BMS-869780” (International Journal of Alzheimer's Disease, 2014).

For the experiment, the system named is Aβ1-40 (MEF M146V). The experiment in a line: Aβ1-40 ELISA in MEF dKO cultures cotransfected with APP-CTF and human presenilin-1 M146V allele. Type of experiment: cell-based. How it is done: H4-APPsw cell cultures were maintained on Dulbecco's modified Eagle's medium (DMEM) supplemented with L-glutamine (2 mM), fetal bovine serum (10%), and G418 (100 μg/mL). […] Aβ1-42 and Aβ1-40 assays, and Notch inhibition assays, were carried out as described previously. Mouse embryonic fibroblasts deficient in PS1 and PS2 (MEF dKO) were passaged twice per week in DMEM/F-12 medium, consisting of a 1 : 1 mixture of DMEM and F-12 nutrient mixture supplemented with 10% fetal bovine serum, penicillin, and streptomycin. For expression of human presenilin-1 in MEF dKO cells, the full length human presenilin-1 cDNA open reading frame was cloned between the BamHI and XhoI sites of the vector pcDNA5/FRT (Invitrogen), placing presenilin-1 expression under the control of the CMV promoter. […]
IC50 determinations for Aβ1-42 and Aβ1-40 in H4-APPsw cultures in 384-well format were determined using homogeneous time-resolved fluorescence immunoassays as previously described. […] In other experiments using H4-APPsw cultures, Aβ was quantified by ELISA; for Aβ1-42 the combination of monoclonal antibodies was 26D6 and 565-HRP; for Aβ1-40 it was TSD and 26D6-HRP, and for Aβ1-x it was 4G8 and 26D6-HRP. […] For Aβ in transiently transfected PS1/PS2 dKO fibroblasts, Aβ1-42 was quantified using an ELISA kit (WACO), and Aβ1-40 was quantified by ELISA as described above for H4-APPsw cultures. […]
In general terms: An ELISA detects its analyte on a solid surface through an enzyme-linked reagent.

For the compound `COc1cc(Nc2nc3n(n2)CCCC[C@H]3c2ccc(F)cc2)ccc1-n1cnc(Cl)c1` [BMS-869780], for the setting “Homo sapiens, presenilin-1 M146V allele”, the IC50 (commonly the concentration that inhibits the measured activity by half) is 34 nM. In addition, the “Aβ1-40 IC50 shift in M146V allele relative to wild type presenilin” value (MEF cultures) is “ca. 3 fold”.
